Reference: US20180133203A1, “METHODS OF TREATING LIVER DISEASE” (Gilead Sciences, Inc., priority 2016, published 2018)

Tests used:
FFD mice [1] = test: Hepatic steatosis (% vacuolation area, H&E morphometry) in fast food diet (FFD) mouse model of NASH; assay type: in vivo, male C57BL/6 mice; conditions: Formula (I) 0.15% admixture in diet, Formula (III) 10 mg/kg PO QD, months 7-10
Protocol: The following study was conducted to evaluate the efficacy of the combination of an ASK1 inhibitor and an FXR agonist in a mouse model of non-alcoholic steatohepatitis (NASH), relative to the efficacy of the individual agents alone in the model. NASH was induced in male C57BL/6 mice by chronic administration of a “fast food” diet (FFD) high in saturated fats, cholesterol and sugars for a total of 10 months, whereas lean control animals were maintained on a normal chow diet. A NASH phenotype was established in FFD mice compared to control mice by 7 months, and was characterized by obesity, hypercholesterolemia, and AST/ALT elevation; and by histological features of NASH such as hepatocellular macrovesicular steatosis and ballooning degeneration. […] Endpoint analyses included morphometric quantification of liver steatosis (% of steatotic area), liver cholesterol content, serum ALT/AST levels, serum bile acid levels, and nanostring evaluation of gene expression. […] Extent of steatosis was determined on H&E stained tissue sections using the Definiens Developer software package. […] The number and size of these areas were enumerated and the total steatotic area was expressed as a percentage of total liver tissue cross-sectional area. […]

FFD mice [2] = test: Total liver cholesterol content in FFD mouse model of NASH; assay type: in vivo, male C57BL/6 mice; conditions: Formula (I) 0.15% admixture in diet, Formula (III) 10 mg/kg PO QD, months 7-10
Protocol: The following study was conducted to evaluate the efficacy of the combination of an ASK1 inhibitor and an FXR agonist in a mouse model of non-alcoholic steatohepatitis (NASH), relative to the efficacy of the individual agents alone in the model. NASH was induced in male C57BL/6 mice by chronic administration of a “fast food” diet (FFD) high in saturated fats, cholesterol and sugars for a total of 10 months, whereas lean control animals were maintained on a normal chow diet. A NASH phenotype was established in FFD mice compared to control mice by 7 months, and was characterized by obesity, hypercholesterolemia, and AST/ALT elevation; and by histological features of NASH such as hepatocellular macrovesicular steatosis and ballooning degeneration. […] Endpoint analyses included morphometric quantification of liver steatosis (% of steatotic area), liver cholesterol content, serum ALT/AST levels, serum bile acid levels, and nanostring evaluation of gene expression. […] After centrifugation, an aliquot of the organic upper layer, containing cholesterol and cholesterol esters, was analyzed. […] The peak area of the m/z 369 [M-H2O]+→161+ product ion of cholesterol was measured against the peak area of the cholesterol-D6 product ion of m/z 375 [M-H2O]+→167+. […]

| SMILES | reduction in steatosis (H&E stained liver sections) (FFD mice [1]) | reduction of liver cholesterol content (FFD mice [2]) |
| --- | --- | --- |
| O=C(O)c1ccnc(N2CC(O)(c3ccc(OCc4c(-c5c(Cl)cccc5Cl)noc4C4CC4)cc3Cl)C2)c1 [Formula (III)] | 27% | 36% |
| O=C(Nc1cccc(-c2nncn2C2CC2)c1)c1cc(-n2cnc(C3CC3)c2)ccn1 [Formula (I)] | 39% | 74% |
